# Data from ChEMBL document CHEMBL1138436, “Biological activity and chemistry of taxoids from the Japanese yew, Taxus cuspidata” (J Nat Prod, 2004).
# Tests used:
# Format in all cases: functional
# NCI-H226 = test: Growth inhibition of human NCI-H226 cells
# HT-29 = test: Growth inhibition of human HT-29 cells
# MCF7 = test: Growth inhibition of human MCF7 cells
# [1] = Growth inhibition of human BSY1 cells
# DMS-273 = test: Growth inhibition of human DMS273 cells
# OVCAR-5 = test: Growth inhibition of human OVCAR5 cells
# SF-268 = test: Growth inhibition of human SF268 cells
# MKN-74 = test: Growth inhibition of human MKN74 cells
# U-251 = test: Growth inhibition of human U251 cells
# MKN-28 = test: Growth inhibition of human MKN28 cells
# MKN-45 = test: Growth inhibition of human MKN45 cells
# SNB-78 = test: Growth inhibition of human SNB78 cells
# St-4 = test: Growth inhibition of human St-4 cells
# NCI-H522 = test: Growth inhibition of human NCI-H522 cells
# SK-OV-3 = test: Growth inhibition of human SKOV3 cells
# [2] = Growth inhibition of human HBC5 cells
# OVCAR-3 = test: Growth inhibition of human OVCAR-3 cells
# HCT-15 = test: Growth inhibition of human HCT15 cells
# SF-539 = test: Growth inhibition of human SF539 cells
# OVCAR-8 = test: Growth inhibition of human OVCAR8 cells
# HCT-116 = test: Growth inhibition of human HCT116 cells
# DMS-114 = test: Growth inhibition of human DMS114 cells
# DU-145 = test: Growth inhibition of human DU145 cells
# MDA-MB-231 = test: Growth inhibition of human MDA-MB-231 cells
# LOX IMVI = test: Growth inhibition of human LOXIMVI cells
# KM12 = test: Growth inhibition of human KM12 cells
# PC-3 = test: Growth inhibition of human PC3 cells
# [3] = read-out: LC50 (the source's name)
# [4] = read-out: pLC50 (the source's name) (converted)
smiles,measurement,setting,value
C=C1[C@@H](OC(=O)/C=C/c2ccccc2)C[C@H](OC(C)=O)[C@]2(C)[C@@H]1C[C@]1(C(C)(C)O)C[C@H](OC(C)=O)C(C)=C1[C@@H](OC(=O)c1ccccc1)[C@@H]2OC(C)=O [TAXUSPINE A],GI50,NCI-H226; read-out: GI50,21 µM
same,CC50,NCI-H226; [3],> 100 µM
same,TGI,NCI-H226; read-out: TGI,> 100 µM
same,GI50,NCI-H226; read-out: pGI50 (converted),83.2 µM
same,CC50,NCI-H226; [4],100 µM
same,TGI,NCI-H226; read-out: pTGI (converted),100 µM
same,GI50,HT-29; read-out: GI50,43 µM
same,CC50,HT-29; [3],> 100 µM
same,TGI,HT-29; read-out: TGI,> 100 µM
same,GI50,HT-29; read-out: pGI50 (converted),43.7 µM
same,TGI,HT-29; read-out: pTGI (converted),100 µM
same,GI50,MCF7; read-out: GI50,9.3 µM
same,CC50,MCF7; [3],> 100 µM
same,TGI,MCF7; read-out: TGI,> 100 µM
same,GI50,MCF7; read-out: pGI50 (converted),9.33 µM
same,CC50,MCF7; [4],100 µM
same,TGI,MCF7; read-out: pTGI (converted),100 µM
same,GI50,"[1]; BSY-1, read-out: GI50",6.9 µM
same,CC50,"[1]; BSY-1, read-out: LC50 (the source's name)",> 100 µM
same,TGI,"[1]; BSY-1, read-out: TGI",82 µM
same,GI50,"[1]; BSY-1, read-out: pGI50 (converted)",6.92 µM
same,CC50,"[1]; BSY-1, read-out: pLC50 (the source's name) (converted)",100 µM
same,TGI,"[1]; BSY-1, read-out: pTGI (converted)",87.1 µM
same,GI50,DMS-273; read-out: GI50,4.2 µM
same,CC50,DMS-273; [3],> 100 µM
same,TGI,DMS-273; read-out: TGI,> 100 µM
same,GI50,DMS-273; read-out: pGI50 (converted),4.37 µM
same,TGI,DMS-273; read-out: pTGI (converted),100 µM
same,GI50,OVCAR-5; read-out: GI50,32 µM
same,CC50,OVCAR-5; [3],> 100 µM
same,TGI,OVCAR-5; read-out: TGI,> 100 µM
same,GI50,OVCAR-5; read-out: pGI50 (converted),32.4 µM
same,CC50,OVCAR-5; [4],100 µM
same,TGI,OVCAR-5; read-out: pTGI (converted),100 µM
same,TGI,SF-268,> 100 µM
same,GI50,SF-268; read-out: GI50,43 µM
same,CC50,SF-268; [3],> 100 µM
same,GI50,SF-268; read-out: pGI50 (converted),42.7 µM
same,CC50,SF-268; [4],100 µM
same,GI50,MKN-74; read-out: GI50,> 100 µM
same,CC50,MKN-74; [3],> 100 µM
same,GI50,MKN-74; read-out: pGI50 (converted),9.55 µM
same,CC50,MKN-74; [4],100 µM
same,TGI,MKN-74; read-out: pTGI (converted),100 µM
same,TGI,U-251,> 100 µM
same,GI50,U-251; read-out: GI50,71 µM
same,CC50,U-251; [3],> 100 µM
same,GI50,U-251; read-out: pGI50 (converted),70.8 µM
same,GI50,MKN-28; read-out: GI50,12 µM
same,CC50,MKN-28; [3],> 100 µM
same,TGI,MKN-28; read-out: TGI,> 100 µM
same,GI50,MKN-28; read-out: pGI50 (converted),11.7 µM
same,CC50,MKN-28; [4],100 µM
same,TGI,MKN-28; read-out: pTGI (converted),100 µM
same,GI50,MKN-45; read-out: GI50,> 100 µM
same,CC50,MKN-45; [3],> 100 µM
same,TGI,MKN-45; read-out: TGI,> 100 µM
same,GI50,MKN-45; read-out: pGI50 (converted),100 µM
same,CC50,MKN-45; [4],100 µM
same,TGI,MKN-45; read-out: pTGI (converted),100 µM
same,GI50,SNB-78; read-out: GI50,3.2 µM
same,CC50,SNB-78; [3],> 100 µM
same,TGI,SNB-78; read-out: TGI,> 100 µM
same,GI50,SNB-78; read-out: pGI50 (converted),3.16 µM
same,CC50,SNB-78; [4],100 µM
same,TGI,SNB-78; read-out: pTGI (converted),100 µM
same,GI50,St-4; read-out: GI50,24 µM
same,CC50,St-4; [3],> 100 µM
same,TGI,St-4; read-out: TGI,> 100 µM
same,GI50,St-4; read-out: pGI50 (converted),24 µM
same,CC50,St-4; [4],100 µM
same,TGI,St-4; read-out: pTGI (converted),100 µM
same,GI50,NCI-H522; read-out: GI50,3.1 µM
same,CC50,NCI-H522; [3],> 100 µM
same,TGI,NCI-H522; read-out: TGI,81 µM
same,GI50,NCI-H522; read-out: pGI50 (converted),3.09 µM
same,TGI,NCI-H522; read-out: pTGI (converted),81.3 µM
same,GI50,SK-OV-3; read-out: GI50,100 µM
same,CC50,SK-OV-3; [3],> 100 µM
same,TGI,SK-OV-3; read-out: TGI,> 100 µM
same,GI50,SK-OV-3; read-out: pGI50 (converted),100 µM
same,CC50,SK-OV-3; [4],100 µM
same,TGI,SK-OV-3; read-out: pTGI (converted),100 µM
same,GI50,[2]; read-out: GI50,100 µM
same,CC50,[2]; [3],> 100 µM
same,TGI,[2]; read-out: TGI,> 100 µM
same,GI50,[2]; read-out: pGI50 (converted),25.1 µM
same,TGI,[2]; read-out: pTGI (converted),100 µM
same,GI50,OVCAR-3; read-out: GI50,5 µM
same,CC50,OVCAR-3; [3],> 100 µM
same,TGI,OVCAR-3; read-out: TGI,> 100 µM
same,GI50,OVCAR-3; read-out: pGI50 (converted),5.01 µM
same,CC50,OVCAR-3; [4],100 µM
same,TGI,OVCAR-3; read-out: pTGI (converted),100 µM
same,GI50,HCT-15; read-out: GI50,29 µM
same,CC50,HCT-15; [3],> 100 µM
same,TGI,HCT-15; read-out: TGI,> 100 µM
same,GI50,HCT-15; read-out: pGI50 (converted),28.8 µM
same,CC50,HCT-15; [4],100 µM
same,TGI,HCT-15; read-out: pTGI (converted),100 µM
same,GI50,SF-539; read-out: GI50,100 µM
same,CC50,SF-539; [3],> 100 µM
same,TGI,SF-539; read-out: TGI,> 100 µM
same,GI50,SF-539; read-out: pGI50 (converted),100 µM
same,CC50,SF-539; [4],100 µM
same,TGI,SF-539; read-out: pTGI (converted),100 µM
same,GI50,OVCAR-8; read-out: GI50,100 µM
same,CC50,OVCAR-8; [3],> 100 µM
same,TGI,OVCAR-8; read-out: TGI,> 100 µM
same,GI50,OVCAR-8; read-out: pGI50 (converted),100 µM
same,CC50,OVCAR-8; [4],100 µM
same,TGI,OVCAR-8; read-out: pTGI (converted),100 µM
same,TGI,HCT-116,> 100 µM
same,GI50,HCT-116; read-out: GI50,5.6 µM
same,CC50,HCT-116; [3],> 100 µM
same,GI50,HCT-116; read-out: pGI50 (converted),5.62 µM
same,CC50,HCT-116; [4],100 µM
same,GI50,DMS-114; read-out: GI50,7.8 µM
same,CC50,DMS-114; [3],> 100 µM
same,TGI,DMS-114; read-out: TGI,> 100 µM
same,GI50,DMS-114; read-out: pGI50 (converted),7.76 µM
same,TGI,DU-145,> 100 µM
same,GI50,DU-145; read-out: GI50,100 µM
same,CC50,DU-145; [3],> 100 µM
same,GI50,DU-145; read-out: pGI50 (converted),100 µM
same,CC50,DU-145; [4],100 µM
same,GI50,MDA-MB-231; read-out: GI50,16 µM
same,CC50,MDA-MB-231; [3],> 100 µM
same,TGI,MDA-MB-231; read-out: TGI,> 100 µM
same,GI50,MDA-MB-231; read-out: pGI50 (converted),16.2 µM
same,CC50,MDA-MB-231; [4],100 µM
same,TGI,MDA-MB-231; read-out: pTGI (converted),100 µM
same,GI50,LOX IMVI; read-out: GI50,38 µM
same,CC50,LOX IMVI; [3],> 100 µM
same,TGI,LOX IMVI; read-out: TGI,> 100 µM
same,GI50,LOX IMVI; read-out: pGI50 (converted),38 µM
same,TGI,LOX IMVI; read-out: pTGI (converted),100 µM
same,GI50,KM12; read-out: GI50,6.4 µM
same,CC50,KM12; [3],> 100 µM
same,TGI,KM12; read-out: TGI,> 100 µM
same,GI50,KM12; read-out: pGI50 (converted),6.46 µM
same,CC50,KM12; [4],100 µM
same,TGI,KM12; read-out: pTGI (converted),100 µM
same,GI50,PC-3; read-out: GI50,5.2 µM
same,CC50,PC-3; [3],> 100 µM
same,TGI,PC-3; read-out: TGI,> 100 µM
same,GI50,PC-3; read-out: pGI50 (converted),5.25 µM
same,TGI,PC-3; read-out: pTGI (converted),100 µM
